Where “and” joins values, the source holds several entries; their conditions need not be identical. Equal entries are not always repeated. Where two headings read alike, the source gives them in different places. Values belong to the molecule of their own block, whether it stands above or below them.
Legend:
[1] = system: THP-1 Lucia ISG cells (interferon pathway); experiment: Potency test of purified dimers on THP-1 Lucia ISG reporter cells; format: cell-based, human; conditions: for Raw readings: replicates 1-3; for fold induction at 0.000508053 µM: Concentration 0.508053 nM; for fold induction at 0.00152416 µM: Concentration 1.52416 nM; for fold induction at 0.00457247 µM: Concentration 4.57247 nM; for fold induction at 0.37037 µM: Concentration 370.37 nM; for fold induction at 1.11111 µM: Concentration 1111.11 nM; for fold induction at 3.33333 µM: Concentration 3333.33 nM; for EC50: three biological replicates, mean ± s.d., read-out: EC50 THP-1
Method: Cells were pelleted (150g, 10 min) and resuspended in the growth medium (40% conditioned) at a density of 1 × 10^6 cells ml^−1. The cell suspension was dispensed (50 µl each well) into a lidded white 96-well plate (BrandTech 781665). Test compounds or DMSO control were diluted in the growth medium and sterilized by filtering through 0.22-µm polyethersulfone (PES) membranes (Merck SLGP033RS). […] Upon cooling down to room temperature, 50 µl of reconstituted luciferase substrate (InvivoGen QUANTI-Luc) was added to each well via the injector of the plate reader (Molecular Devices SpectraMax i3x), and the luminescence output was recorded (4 s delay, 0.1 s integration). Raw signals were divided by the averaged signal of the DMSO-treated control wells and reported in relative luminescence unit (RLU). The dose–response curve of each replicate was fitted individually using the standard 4PL model (GraphPad Prism). The EC50 value of each compound was averaged from three independent experiments and reported as mean ± s.e.m.

[2] = target: T1, wild-type human STING LBD (hSTINGwt 138-379) (Homo sapiens, UniProt Q86WV6, H232R); experiment: Isothermal titration calorimetry (ITC), reverse titration; format: binding
T1 construct: SUMO (N, cleaved yes); made in house; host or cells: Escherichia coli BL21 (DE3)
Method: Escherichia coli BL21 (DE3) (Thermo Scientific EC0114) was transformed with a pET28a plasmid (Genscript) harbouring the codon-optimized sequence of SUMO-hSTINGwt (aa138-379). Transformed BL21 cells were inoculated into LB medium (50 µg ml^−1 kanamycin) and incubated at 180 rpm, 37 °C overnight. The overnight culture was then diluted (1:100 dilution) in 2× YT medium (50 µg ml^−1 kanamycin) and incubated at 180 rpm, 37 °C until optical density at 600 nm (OD600) reached 0.6 (approximately 3 h). The bacterial culture was then cooled to 16 °C, induced with 0.5 mM isopropyl 1-thio-D-galactopyranoside and incubated overnight at 180 rpm, 16 °C. The bacterial cells were pelleted at 4,000g for 30 min, resuspended in 20 ml of lysis buffer (25 mM HEPES pH 7.5, 150 mM NaCl, 20 mM imidazole and 2 mM TCEP supplied with 2 tablets of cOmplete mini EDTA-free protease inhibitors) and disrupted by sonication on ice. The total lysate was clarified by centrifugation at 22,000g for 30 min. The supernatant was collected and filtered through a 0.45-µm filter (Millipore SLHAR33SS). The clarified lysate was then incubated on a roller with 10 ml bed volume of Ni-NTA resin (Thermo Scientific 88223) at 4 °C for 1 h. The Ni-NTA resin was then packed in a column, flushed with 20 ml of wash buffer (25 mM HEPES pH 7.5, 150 mM NaCl and 20 mM imidazole) and eluted with 40 ml of elution buffer (25 mM HEPES pH 8.0, 150 mM NaCl and 250 mM imidazole). The eluted protein was concentrated to approximately 5 ml (Millipore Amicon 10 kDa molecular weight cut-off (MWCO)) and buffer-exchanged into storage buffer (25 mM HEPES pH 7.5 and 150 mM NaCl). TCEP was then added to a final concentration of 2 mM, and 250 units of SUMO protease (Merck SAE0067) were added. The cleavage reaction mixture was left to stand at 4 °C overnight until LC–MS analysis indicated the completion of the cleavage reaction. The cleavage mixture was incubated with 10 ml bed volume of Ni-NTA resin on a roller at 4 °C for 1 h and packed in a disposable column. The flowthrough was collected, and the resin was further flushed with 20 ml of wash buffer. The eluted fractions were combined, concentrated and further purified by size-exclusion chromatography (Cytiva, Superdex 200 Increase 10/300 GL). The purified protein in storage buffer was concentrated to 330 µM (dimer concentration) as determined by bicinchoninic acid (BCA) assay, aliquoted, flash-frozen in liquid nitrogen and stored at −80 °C for future use.
The binding constants of purified dimers were measured by ITC (Malvern Panalytical AutoITC200) in a reverse-titration format. Stock DMSO solutions of each dimer were dissolved in titration buffer (25 mM HEPES pH 7.5 and 150 mM NaCl) to a final concentration of 25 µM and added to the titration cell. The syringe was filled with 250 µM of purified STING in a matching buffer. Titration was performed at 25 °C with the following parameters: 750 rpm stirring, 0.2 µl initial injection followed by 2-µl injections of the […] every 120 s. Titration of STING protein into blank buffer was separately performed and subtracted from the raw data before the analysis. The background-subtracted titration curves were fitted with the built-in Origin software using the standard one-site model.
Extended Data Fig. 2 Isothermal titration calorimetry (ITC) data for binding constant measurements. Purified hSTINGwt138-379 (250 μM of homodimer) was titrated into each dimer (25 μM) dissolved in a matching buffer (25 mM HEPES pH 7.5, 150 mM NaCl) at 25 °C and 750 rpm stirring. Binding constants were reported as the average from duplicate measurements.

[3] = Homo sapiens, THP1-Lucia ISG, 24 h, three replicates, read-out: Processed reporter response per replicate (reading relative to DMSO)
[4] = Homo sapiens, THP1-Lucia ISG, 24 h
[5] = 25 °C, average of duplicate measurements, read-out: Kd hSTINGwt (binding constant, ITC)

T1 sequence (Q86WV6 138-379 H232R): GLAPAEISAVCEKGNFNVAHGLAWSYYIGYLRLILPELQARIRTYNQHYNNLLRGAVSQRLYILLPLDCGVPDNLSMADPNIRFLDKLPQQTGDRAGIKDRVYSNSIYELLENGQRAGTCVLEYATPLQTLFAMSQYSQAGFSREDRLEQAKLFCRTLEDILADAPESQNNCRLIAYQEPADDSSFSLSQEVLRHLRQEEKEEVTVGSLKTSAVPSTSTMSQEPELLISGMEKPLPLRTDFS

EC50 [1, 4]: 291 ± 22 nM
Kd [2, 5]: 65 nM
Kd ([2]; ITC run _01, read-out: Kd): 80 nM
Kd ([2]; ITC run _02, read-out: Kd): 50 nM
Structure (SMILES): COc1cc2sc(C(=O)CCC(=O)O)cc2cc1Sc1cc2cc(C(=O)CCC(=O)O)sc2cc1OC [Compound D1]
Raw readings ([1]; Conc 0.508053 nM): 1353 RLU and 1053 RLU and 1124 RLU
Raw readings ([1]; Conc 1.52416 nM): 759 RLU and 868 RLU and 713 RLU
Raw readings ([1]; Conc 4.57247 nM): 1002 RLU and 721 RLU and 729 RLU
Raw readings ([1]; Conc 13.7174 nM): 1412 RLU and 851 RLU and 1233 RLU
Raw readings ([1]; Conc 41.1523 nM): 3959 RLU and 4405 RLU and 4421 RLU
Raw readings ([1]; Conc 123.457 nM): 44787 RLU and 77696 RLU and 48848 RLU
Raw readings ([1]; Conc 370.37 nM): 107911 RLU and 161465 RLU and 94323 RLU
Raw readings ([1]; Conc 1111.11 nM): 125522 RLU and 220455 RLU and 140381 RLU
Raw readings ([1]; Conc 3333.33 nM): 142408 RLU and 266422 RLU and 170286 RLU
Raw readings ([1]; Conc 10000 nM): 176790 RLU and 287573 RLU and 159056 RLU
fold induction at 0.000508053 µM [1, 3]: 1.85
fold induction at 0.00152416 µM [1, 3]: 1.04
fold induction at 0.00457247 µM [1, 3]: 1.37
fold induction at 0.0137174 µM ([1]; Homo sapiens, THP1-Lucia ISG, 24 h, Concentration 13.7174 nM, three replicates, read-out: Processed reporter response per replicate (reading relative to DMSO)): 1.93
fold induction at 0.0411523 µM ([1]; Homo sapiens, THP1-Lucia ISG, 24 h, Concentration 41.1523 nM, three replicates, read-out: Processed reporter response per replicate (reading relative to DMSO)): 5.41
fold induction at 0.123457 µM ([1]; Homo sapiens, THP1-Lucia ISG, 24 h, Concentration 123.457 nM, three replicates, read-out: Processed reporter response per replicate (reading relative to DMSO)): 61.3
fold induction at 0.37037 µM [1, 3]: 148
fold induction at 1.11111 µM [1, 3]: 172
fold induction at 3.33333 µM [1, 3]: 195
fold induction at 10 µM ([1]; Homo sapiens, THP1-Lucia ISG, 24 h, Concentration 10000 nM, three replicates, read-out: Processed reporter response per replicate (reading relative to DMSO)): 242

EC50 [1, 4]: 74 ± 12 nM
Kd [2, 5]: 46 nM
Kd ([2]; ITC run _01, read-out: Kd): 79 nM
Kd ([2]; ITC run _02, read-out: Kd): 13 nM
Structure (SMILES): COc1cc2sc(C(=O)CCC(=O)O)cc2cc1CSc1cc2cc(C(=O)CCC(=O)O)sc2cc1OC [Compound D2]
Raw readings ([1]; Conc 0.508053 nM): 658 RLU and 1263 RLU and 1053 RLU
Raw readings ([1]; Conc 1.52416 nM): 564 RLU and 729 RLU and 601 RLU
Raw readings ([1]; Conc 4.57247 nM): 1074 RLU and 921 RLU and 1413 RLU
Raw readings ([1]; Conc 13.7174 nM): 6767 RLU and 16752 RLU and 12692 RLU
Raw readings ([1]; Conc 41.1523 nM): 51165 RLU and 121226 RLU and 61063 RLU
Raw readings ([1]; Conc 123.457 nM): 102439 RLU and 196826 RLU and 100000 RLU
Raw readings ([1]; Conc 370.37 nM): 111711 RLU and 237713 RLU and 134702 RLU
Raw readings ([1]; Conc 1111.11 nM): 126733 RLU and 297637 RLU and 176097 RLU
Raw readings ([1]; Conc 3333.33 nM): 139803 RLU and 327985 RLU and 173658 RLU
Raw readings ([1]; Conc 10000 nM): 138886 RLU and 307582 RLU and 153848 RLU
fold induction at 0.000508053 µM [1, 3]: 0.9
fold induction at 0.00152416 µM [1, 3]: 0.771
fold induction at 0.00457247 µM [1, 3]: 1.47
fold induction at 0.37037 µM [1, 3]: 153
fold induction at 1.11111 µM [1, 3]: 173
fold induction at 3.33333 µM [1, 3]: 191

From paper PMC12669040, “Tumour-specific STING agonist synthesis via a two-component prodrug system” (Nature Chemistry, 2025)
